From patent US20040248919A1, “Fluorinated trienes and their use as rxr modulators” (priority 2001, published 2004)
Where two headings read alike, the source gives them in different places.

Target: T1, RXRα:RXRα homodimer (Homo sapiens, UniProt P19793)
T1 sequence (P19793 1-462): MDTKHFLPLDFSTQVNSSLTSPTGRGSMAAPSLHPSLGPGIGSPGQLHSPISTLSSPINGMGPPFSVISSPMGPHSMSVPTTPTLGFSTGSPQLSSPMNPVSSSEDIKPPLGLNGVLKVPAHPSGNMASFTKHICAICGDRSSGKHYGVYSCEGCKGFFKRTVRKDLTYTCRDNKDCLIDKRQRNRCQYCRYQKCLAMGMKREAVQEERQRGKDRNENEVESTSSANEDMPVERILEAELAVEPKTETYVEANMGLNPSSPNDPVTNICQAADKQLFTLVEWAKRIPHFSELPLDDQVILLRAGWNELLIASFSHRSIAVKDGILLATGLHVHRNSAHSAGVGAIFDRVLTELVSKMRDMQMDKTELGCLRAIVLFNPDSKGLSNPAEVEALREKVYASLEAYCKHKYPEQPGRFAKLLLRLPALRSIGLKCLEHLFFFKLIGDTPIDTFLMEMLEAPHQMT
Assay: RXR homodimer co-transfection assay (antagonist) in CV-1 cells
Type: cell-based
Details: for IC50: in the presence of 3.2×10^−8 M LGD1069, read-out: RXR Antagonist CTF IC50
Source text: In the co-transfection assay, cloned cDNA for one or more IRs (e.g. human RARα, RXRα, or PPARγ), alone or in combination (i.e. for heterodimer assays) under the control of a constitutive promoter (e.g., the SV 40, RSV or CMV promoter) is introduced by transfection (a procedure to introduce exogenous genes into cells) into a background cell substantially devoid of endogenous IRs. These introduced gene(s) direct the recipient cells to make the IR protein(s) of interest. A further gene is also introduced (co-transfected) into the same cells in conjunction with the IR gene(s). This further gene, comprising the cDNA for a reporter protein, such as firefly luciferase (LUC), controlled by an appropriate hormone responsive promoter containing a hormone response element (HRE). This reporter plasmid functions as a reporter for the transcriptional-modulating activity of the target IR(s). Thus, the reporter acts as a surrogate for the products (mRNA then protein) normally expressed by a gene under control of the target receptor(s) and their native hormone(s). The co-transfection assay can detect small molecule agonists or antagonists, including partial agonists and antagonist, of target IRs. Exposing the transfected cells to an agonist ligand compound increases reporter activity in the transfected cells. This activity can be conveniently measured, e.g., by increasing luciferase production and enzymatic activity, which reflects compound-dependent, IR-mediated increases in reporter transcription. […] Increasing concentrations of an antagonist will decrease the reporter signal (e.g., luciferase production). The co-transfection assay is therefore useful to detect both agonists and antagonists of specific IRs. Furthermore, it determines not only whether a compound interacts with a particular IR, but whether this interaction mimics (agonizes) or blocks (antagonizes) the effects of native or synthetic regulatory molecules on target gene expression, as well as the specificity and strength of this interaction. […] To determine agonist and antagonist activity of the modulator compounds of the present invention, the CV-1 cells were transiently transfected by calcium phosphate coprecipitation according to the procedure of Berger et al., 41 J. Steroid Biochem. Mol. Biol., 733 (1992) with the receptor expressing plasmid […] et al., 345 Nature, 224 (1990), the disclosures of which are herein incorporated by reference at a concentration of 10 ng/well. The receptor expression plasmid was cotransfected along with a reporter plasmid at 50 ng/well, the internal control plasmid pRS-β-Gal at 50 ng/well and filler DNA, pGEM, at 90 ng/well. The reporter plasmid […], which contains an RXRE (retinoid X receptor response element, as described in Mangelsdorf et al., 66 Cell, 555 (1991), the disclosure of which is herein incorporated by reference, was used in transfections for the RXR homodimer assay. This reporter plasmid contains the cDNA for firefly luciferase (LUC) under the control of a promoter containing the RXR response element. As noted above, pRS-β-Gal, coding for constitutive expression of E. coli β-galactosidase (β-Gal), was included as an internal control for evaluation of transfection efficiency and compound toxicity. Six hours after transfection, media was removed and the cells were washed with phosphate-buffered saline (PBS). Media containing compounds of the present invention in concentrations ranging from 10^-10 to 10^-5 M were added to the cells. […] Ligand Pharmaceuticals, Inc.), compounds with known agonist activity on RXRs, were added at similar concentrations to provide a reference point for analysis of the agonist activity of the compounds of the present invention. […] Ligand Pharmaceuticals, Inc.). Retinoid purity was established as greater than 99% by reverse phase high-performance liquid chromatography. Retinoids were dissolved in dimethylsulfoxide for use in the transcriptional activation assays. Two to three replicates were used for each sample. […]

[1] = CV-1 cells, antagonist efficacy as % of maximal inhibition, read-out: RXR Antagonist CTF % Efficacy

Row | Compound | Emax [1] [%] | IC50 (CV-1 cells) [nM] | Emax (CV-1, read-out: RXR Antagonist CTF % Efficacy) [%]
1 | CCCCOc1c(\C(C)=C/C=C/C(=C/C(=O)O)C(F)(F)F)cc(C(C)C)cc1C(C)C [Example 3, (2Z,4E,6Z)-7-(2-Butoxy-3,5-diisopropylphenyl)-3-trifluoromethyl-octa-2,4,6-trienoic acid] | 83 | 921 | –
2 | C/C(=C/C=C(F)/C(C)=C/C(=O)O)c1cc(C(C)(C)C)cc(C(C)(C)C)c1OCC(F)F [Example 1, 7-[3,5-di-tert-butyl-2-(2,2-difluoroethoxy)-phenyl]4-fluoro-3-methyl-octa-2,4,6-trienoic acid] | 100 | 4840 | –
3 | CCOc1c(\C(=C/C=C/C(C)=C/C(=O)O)C(F)(F)F)cc(C(C)(C)C)cc1C(C)(C)C [Example 5, (2E,4E,6E)-3-methyl-7-(2-ethoxy-3,5-di-tert-butylphenyl)-8,8,8-trifluoroocta-2,4,6-trienoic acid] | – | 38 | 30
4 | C/C(=C/C(F)=C/C(C)=C/C(=O)O)c1cc(C(C)(C)C)cc(C(C)(C)C)c1OCC(F)F [Example 2, 7-[3,5-Di-tert-butyl-2-(2,2-difluoroethoxy)-phenyl]-5-fluoro-3-methyl-octa-2,4,6-trienoic acid] | 100 | 8710 | –
5 | CCCCOc1c(\C(C)=C/C=C/C(=C\C(=O)O)C(F)(F)F)cc(C(C)C)cc1C(C)C [Example 4, (2E,4E,6Z)-7-(2-Butoxy-3,5-diisopropylphenyl)-3-trifluoromethyl-octa-2,4,6-trienoic acid] | 29 | – | –
